In one data set the test system is genotype 1b (Con-1) HCV replicon. Kind of data set: HCV Replicon Luciferase Assay. It is filed as cell-based. The conditions noted are these: Hepatitis C virus, 72 h; Huh-7 genotype 1b replicon, Renilla luciferase, 3 days incubation; read-out: EC50 1b (class). The protocol: The cell lines used to evaluate compounds consist of a human hepatocyte derived cell line (Huh-7) that constitutively expresses a genotype 1b (Con-1) HCV replicon or a genotype 1b (Con-1) HCV replicon with an asparagine replacing the cysteine at amino acid 316, or a genotype 2a (JFH-1) replicon, containing a Renilla luciferase reporter gene. These cells were maintained in Dulbecco's modified Eagle medium (DMEM) containing 10% FBS, 100 U/mL penicillin/streptomycin and 1.0 mg/mL G418.
To evaluate compound efficacy, titrated compounds were transferred to sterile 384-well tissue culture treated plates, and the plates were seeded with HCV replicon cells (50 μL at a density of 2.4×10^3 cells/well) in DMEM containing 4% FBS (final DMSO concentration at 0.5%). After 3 days incubation at 37° C., cells were analyzed for Renilla Luciferase activity using the EnduRen substrate (Promega cat #E6485) according to the manufacturer's directions. Briefly, the EnduRen substrate was diluted in DMEM and then added to the plates to a final concentration of 7.5 μM. The plates were incubated for at least 1 h at 37° C. then read on a Viewlux Imager (PerkinElmer) using a luminescence program. The 50% effective concentration (EC50) was calculated using the four-parameter logistic Formula noted above.
Compound EC50 data is expressed as A: <100 nM; B=100-1000 nM; C>1000 nM).
(In general: In antiviral work, replicon cells carry a viral genome segment that copies itself.)
Usually EC50 stands for the concentration needed to bring the measured effect to its halfway point. For the molecule `CNC(=O)c1c(-c2ccc(F)cc2)oc2cc(N(CC(F)F)S(C)(=O)=O)c(-c3cccc(C(=O)NC(C)(C)C(F)(F)F)c3)cc12` [Compound 7003], the EC50 was less than 0.1 µM.

For the molecule `CNC(=O)c1c(-c2ccc(F)cc2)oc2cc(N(CC(F)F)S(C)(=O)=O)c(-c3cccc(C(=O)NC(CF)(CF)CF)c3)cc12` [Compound 7004], the EC50 was less than 0.1 µM.

For `CNC(=O)c1c(-c2ccc(F)cc2)oc2cc(N(CC=C(F)F)S(C)(=O)=O)c(-c3cccc(C(=O)OC)c3)cc12` [Compound 8001], the EC50 is less than 0.1 µM.

With `CNC(=O)c1c(-c2ccc(F)cc2)oc2cc(N(CCC(F)(F)F)S(C)(=O)=O)c(-c3cccc(C(=O)O)c3)cc12` [Compound 9002], the EC50 is greater than 1 µM.

Consider `CNC(=O)c1c(-c2ccc(F)cc2)oc2cc(N(CCC(F)(F)F)S(C)(=O)=O)c(-c3cccc(C(=O)NCC(F)(F)C(F)(F)F)c3)cc12` [Compound 9003], for which the EC50 was less than 0.1 µM.

As to `CNC(=O)c1c(-c2ccc(F)cc2)oc2cc(N(CCC(F)(F)F)S(C)(=O)=O)c(-c3cccc(C(=O)NC(C)(C)C(F)(F)F)c3)cc12` [Compound 9004], the EC50 is less than 0.1 µM.

With `CNC(=O)c1c(-c2ccc(F)cc2)oc2cc(N(CCC(F)(F)F)S(C)(=O)=O)c(-c3cccc(C(=O)NC(CF)(CF)CF)c3)cc12` [Compound 9005], the EC50 is less than 0.1 µM.

Regarding `CNC(=O)c1c(-c2ccc(F)cc2)oc2cc(N(CCC(F)(F)F)S(C)(=O)=O)c(-c3cccc(C(=O)NC(C)(C)C#N)c3)cc12` [Compound 9006], the EC50 is less than 0.1 µM.

In the case of `CNC(=O)c1c(-c2ccc(F)cc2)oc2cc(N(CCC(F)(F)F)S(C)(=O)=O)c(-c3cccc(C(=O)NC(C)(C)CF)c3)cc12` [Compound 9007], the EC50 is less than 0.1 µM.

Still in this data set, the particulars now being: Hepatitis C virus, 72 h; Huh-7 genotype 1b replicon, Renilla luciferase, 3 days incubation; read-out: EC50 (uM) 1b.
`CNC(=O)c1c(-c2ccc(F)cc2)oc2cc(N(CCC(F)(F)F)S(C)(=O)=O)c(-c3cccc(C(=O)NCC(F)(F)C(F)(F)F)c3)cc12` [Compound 9003]: the EC50 worked out at 0.0076 µM.

`CNC(=O)c1c(-c2ccc(F)cc2)oc2cc(N(CCC(F)(F)F)S(C)(=O)=O)c(-c3cccc(C(=O)NC(C)(C)C(F)(F)F)c3)cc12` [Compound 9004]: the EC50 worked out at 0.0106 µM.

In the next data set the test system is HCV.
Assay: not given
The conditions noted are these: combination regimens with interferon and ribavirin; cited from earlier work.
Turning to `CNC(=O)c1c(-c2ccc(F)cc2)oc2cc(N(CCO)S(C)(=O)=O)c(C3CC3)cc12` [HCV-796], the “toxicity during extended dosing” value is listed as “hepatic toxicity”.

Still in this data set, the particulars now being: combination therapy, patients; cited from earlier work.
Turning to alpha-interferon and ribavirin, the “sustained efficacy, patients” value was 40%.

Source of the values: patent US10125111B2, “Benzofuran compounds for the treatment of hepatitis C” (BRISTOL-MYERS SQUIBB COMPANY, priority 2015, dated 2018).
